Source: ChEMBL document CHEMBL2434863, “Synthesis and in vitro/in vivo antibacterial activity of oxazolidinones having thiocarbamate at C-5 on the A-ring and an amide- or urea-substituted [1,2,5]triazepane or [1,2,5]oxadiazepane as the C-ring” (Eur J Med Chem, 2013)

Columns and labels:
Format in all cases: functional
[1] = system: Haemophilus influenzae; test: Antibacterial activity against Haemophilus influenzae SR27914 clinical isolate assessed as growth inhibition by broth microdilution method
[2] = system: Streptococcus pneumoniae; test: Antibacterial activity against Streptococcus pneumoniae SR26207 clinical isolate assessed as growth inhibition by broth microdilution method
[3] = system: Staphylococcus aureus; test: Antibacterial activity against linezolid-resistant Staphylococcus aureus NRS271 assessed as growth inhibition by broth microdilution method
[4] = system: Enterococcus faecalis; test: Antibacterial activity against Enterococcus faecalis SR1004 clinical isolate assessed as growth inhibition by broth microdilution method
[5] = system: Staphylococcus aureus; test: Antibacterial activity against Staphylococcus aureus SR20549 clinical isolate assessed as growth inhibition by broth microdilution method
[6] = system: Staphylococcus aureus; test: Antibacterial activity against Staphylococcus aureus Smith assessed as growth inhibition by broth microdilution method
[7] = system: Moraxella catarrhalis; test: Antibacterial activity against Moraxella catarrhalis SR26840 clinical isolate assessed as growth inhibition by broth microdilution method
[8] = system: Enterococcus faecium; test: Antibacterial activity against Enterococcus faecium SR7940 clinical isolate assessed as growth inhibition by broth microdilution method

| Compound | MIC [1] [µg/mL] | MIC [2] [µg/mL] | MIC [3] [µg/mL] | MIC [4] [µg/mL] | MIC [5] [µg/mL] | MIC [6] [µg/mL] | MIC [7] [µg/mL] | MIC [8] [µg/mL] |
| --- | --- | --- | --- | --- | --- | --- | --- | --- |
| CC(=O)NC[C@H]1CN(c2cc(F)c(N3CCn4c(=O)c5cc(Br)cnc5n4CC3)c(F)c2)C(=O)O1 | 64 | 0.25 | 8 | 2 | 1 | 1 | 4 | 1 |
| NC(=O)N1CCN(c2c(F)cc(N3C[C@H](Cn4ccnn4)OC3=O)cc2F)CCO1 | 16 | 1 | 32 | 4 | 1 | 2 | 8 | 4 |
| CC(=O)NC[C@H]1CN(c2cc(F)c(N3CCn4c(=O)c5cccnc5n4CC3)c(F)c2)C(=O)O1 | 16 | 0.25 | 8 | 1 | 1 | 0.5 | 4 | 1 |
| CC(=O)NC[C@H]1CN(c2ccc(-c3ccc(N4CCON(C(=O)CO)CC4)nc3)c(F)c2)C(=O)O1 | 16 | 0.125 | 8 | 1 | 1 | 2 | 16 | 1 |
| O=C(NO)N1CCN(c2c(F)cc(N3C[C@H](Cn4ccnn4)OC3=O)cc2F)CCN1 | 16 | 0.5 | 64 | 8 | 2 | 4 | 8 | 8 |
| CNC(=O)N1CCN(c2c(F)cc(N3C[C@H](CNC(=S)OC)OC3=O)cc2F)CCO1 | 32 | 0.125 | 4 | 1 | 0.5 | 0.5 | 2 | 0.5 |
| NC(=O)N1CCN(c2c(F)cc(N3C[C@H](Cn4ccnn4)OC3=O)cc2F)CCN1 | 16 | 0.5 | 32 | 2 | 1 | 1 | 4 | 4 |
| NC(=O)N1CCN(c2c(F)cc(N3C[C@H](CNc4ccon4)OC3=O)cc2F)CCN1 | 16 | 0.125 | 16 | 1 | 0.5 | 1 | 8 | 1 |
| CNC(=O)N1CCN(c2c(F)cc(N3C[C@H](Cn4ccnn4)OC3=O)cc2F)CCO1 | 32 | 1 | 32 | 4 | 2 | 8 | 16 | 2 |
| COC(=S)NC[C@H]1CN(c2ccc(N3CCNN(C(=O)NO)CC3)c(F)c2)C(=O)O1 | 4 | ≤ 0.063 | 16 | 1 | 0.5 | 1 | 4 | 1 |
| CC(=O)N1CCN(c2c(F)cc(N3C[C@H](Cn4ccnn4)OC3=O)cc2F)CCN1 | 32 | 1 | 16 | 2 | 1 | 2 | 16 | 2 |
| CC(=O)N1CCN(c2c(F)cc(N3C[C@H](CNC(C)=S)OC3=O)cc2F)CCO1 | 8 | 0.125 | 4 | 0.5 | 0.25 | 1 | 2 | 0.5 |
| CONC(=O)N1CCN(c2c(F)cc(N3C[C@H](CNC(=S)OC)OC3=O)cc2F)CCO1 | 16 | 0.125 | 8 | 1 | 0.5 | 1 | 2 | 0.5 |
| O=C(C(F)F)N1CCN(c2c(F)cc(N3C[C@H](Cn4ccnn4)OC3=O)cc2F)CCN1 | 16 | 0.125 | 16 | 1 | 0.5 | 1 | 8 | 1 |
| CC(=O)NC[C@H]1CN(c2ccc(N3CCn4c(=O)c5cccnc5n4CC3)c(F)c2)C(=O)O1 | 32 | 0.5 | 16 | 2 | 2 | 1 | 16 | 2 |
| CC(=O)NC[C@H]1CN(c2cc(F)c(N3CCn4c(=O)c5cc(Cl)cnc5n4CC3)c(F)c2)C(=O)O1 | 64 | 0.25 | 8 | 2 | 1 | 1 | 4 | 1 |
| CC(=O)NC[C@H]1CN(c2cc(F)c(N3CCON(C(C)=O)CC3)c(F)c2)C(=O)O1 | 32 | 1 | 32 | 2 | 2 | 4 | 4 | 4 |
| CONC(=O)N1CCN(c2ccc(N3C[C@H](CNC(=S)OC)OC3=O)cc2F)CCN1 | 16 | 0.25 | 16 | 0.5 | 1 | 1 | 4 | 0.5 |
| O=C(NO)N1CCN(c2c(F)cc(N3C[C@H](Cn4ccnn4)OC3=O)cc2F)CCO1 | 16 | 0.5 | 64 | 4 | 2 | 2 | 8 | 4 |
| Nc1cnc2c(c1)c(=O)n1n2CCN(c2c(F)cc(N3C[C@H](Cn4ccnn4)OC3=O)cc2F)CC1 | 32 | 0.25 | 16 | 2 | 1 | 1 | 16 | 2 |
| O=C1O[C@@H](Cn2ccnn2)CN1c1cc(F)c(N2CCn3c(=O)c4cccnc4n3CC2)c(F)c1 | 32 | 0.5 | 8 | 1 | 0.5 | 2 | 8 | 1 |
| O=C(CO)N1CCN(c2ccc(-c3ccc(N4C[C@H](Cn5ccnn5)OC4=O)cc3F)cn2)CCO1 | 32 | 0.25 | 8 | 2 | 1 | 2 | 8 | 1 |
| CC(=O)NC[C@H]1CN(c2cc(F)c(N3CCn4c(=O)c5cc(N)cnc5n4CC3)c(F)c2)C(=O)O1 | 32 | 0.25 | 8 | 2 | 1 | 0.5 | 8 | 2 |
| O=C(C(F)F)N1CCN(c2c(F)cc(N3C[C@H](CNc4ccon4)OC3=O)cc2F)CCN1 | 16 | 0.125 | 8 | 0.5 | 0.5 | 1 | 4 | 0.5 |
| O=C1O[C@@H](Cn2ccnn2)CN1c1ccc(N2CCn3c(=O)c4cccnc4n3CC2)c(F)c1 | 32 | 1 | 64 | 4 | 2 | 4 | 32 | 4 |
